Measurements taken from patent US20260053932A1, “COMPOUNDS AND METHODS FOR THE TARGETED DEGRADATION OF ANDROGEN RECEPTOR AND ASSOCIATED METHODS OF USE” (Arvinas Operations, Inc., priority 2020, published 2026).

Tested on: androgen receptor (AR) in LNCaP and/or VCaP cells
Test: Androgen Receptor ELISA assay (AR degradation)
Type: cell-based
Conditions: degradation of AR ELISA in LNCaP and/or VCaP cells; Table 2C; read-out: DC50 Code*
Outline: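 VCaP cells grown ≥3 days, then treated 5 h with compound in media containing 1 nM R1881 (10× stock). Cells lysed and AR quantified by sandwich ELISA (mouse AR detection Ab, HRP anti-mouse, TMB). DC50 and Dmax derived from AR degradation.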

Question: With `COCCN(CC1CCN(c2ccc(C(=O)N[C@H]3C(C)(C)[C@H](Oc4cc(C)c(C#N)c(C)c4)C3(C)C)cc2)CC1)[C@H]1C[C@H](Oc2cc(OC)c3c(c2)C(=O)N(C2CCC(=O)NC2=O)C3=O)C1` (stereo partly shown) [compound 106, N-((1r,3r)-3-(4-cyano-3,5-dimethylphenoxy)-2,2,4,4-tetramethylcyclobutyl)-4-(4-((((1r,3r)-3-((2-(2,6-dioxopiperidin-3-yl)-7-methoxy-1,3-dioxoisoindolin-5-yl)oxy)cyclobutyl)(2-methoxyethyl)amino)methyl)piperidin-1-yl)benzamide] as the compound, how does the DC50 read?
Answer: < 1 nM

Question: How did the DC50 turn out when `CC1(C)[C@H](NC(=O)c2ccc(N3CC4CN(CC5CCN(c6ccc7c(c6)C(=O)N(C6CCC(=O)NC6=O)C7=O)CC5)CC4C3)cc2)C(C)(C)[C@H]1Oc1ccc(C#N)c(Cl)c1` (stereo partly shown) [compound 107, N-((1r,3r)-3-(3-chloro-4-cyanophenoxy)-2,2,4,4-tetramethylcyclobutyl)-4-(5-((1-(2-(2,6-dioxopiperidin-3-yl)-1,3-dioxoisoindolin-5-yl)piperidin-4-yl)methyl)hexahydropyrrolo [3,4-c]pyrrol-2(1H)-yl)benzamide] was run?
Answer: < 1 nM

Question: Which DC50 does the source give for `CC(C)N(CC1CCN(c2ncc(C(=O)N[C@H]3C(C)(C)[C@H](Oc4ccc(C#N)c(C#N)c4)C3(C)C)cn2)CC1)[C@H]1C[C@H](Oc2ccc3c(c2)C(=O)N(C2CCC(=O)NC2=O)C3=O)C1` (stereo partly shown) [compound 108, N-((1r,3r)-3-(3,4-dicyanophenoxy)-2,2,4,4-tetramethylcyclobutyl)-2-(4-((((1r,3r)-3-((2-(2,6-dioxopiperidin-3-yl)-1,3-dioxoisoindolin-5-yl)oxy)cyclobutyl) (isopropyl)amino)methyl)piperidin-1-yl)pyrimidine-5-carboxamide] here?
Answer: < 1 nM

Question: `Cc1cc(O[C@H]2C(C)(C)[C@H](NC(=O)c3cnc(N4CCC(CN(CC(F)F)[C@H]5C[C@H](Oc6ccc7c(c6)C(=O)N(C6CCC(=O)NC6=O)C7)C5)CC4)nc3)C2(C)C)cc(C)c1C#N` (stereo partly shown) [compound 109, N-((1r,3r)-3-(4-cyano-3,5-dimethylphenoxy)-2,2,4,4-tetramethylcyclobutyl)-2-(4-(((2,2-difluoroethyl)((1r,3r)-3-((2-(2,6-dioxopiperidin-3-yl)-3-oxoisoindolin-5-yl)oxy)cyclobutyl)amino)methyl)piperidin-1-yl)pyrimidine-5-carboxamide] was tested. Which DC50 did it give?
Answer: < 1 nM

Question: Which DC50 does the source give for `Cc1cc(O[C@H]2C(C)(C)[C@H](NC(=O)c3ccc(N4CCC(CN(C(C)C)[C@H]5C[C@H](Oc6ccc7c(c6)C(=O)N(C6CCC(=O)NC6=O)C7=O)C5)CC4)nn3)C2(C)C)cc(C)c1C#N` (stereo partly shown) [compound 110, N-((1r,3r)-3-(4-cyano-3,5-dimethylphenoxy)-2,2,4,4-tetramethylcyclobutyl)-6-(4-((((1r,3r)-3-((2-(2,6-dioxopiperidin-3-yl)-1,3-dioxoisoindolin-5-yl)oxy)cyclobutyl) (isopropyl)amino)methyl)piperidin-1-yl)pyridazine-3-carboxamide] here?
Answer: < 1 nM

Question: Which DC50 does the source give for `CC1(C)[C@H](NC(=O)c2ccc(N3CCC(CCN4CC5CN(c6ccc7c(c6)C(=O)N(C6CCC(=O)NC6=O)C7=O)CC5C4)C3)cc2)C(C)(C)[C@H]1Oc1ccc(C#N)c(Cl)c1` (stereo partly shown) [compound 111, N-((1r,3r)-3-(3-chloro-4-cyanophenoxy)-2,2,4,4-tetramethylcyclobutyl)-4-(3-(2-(5-(2-(2,6-dioxopiperidin-3-yl)-1,3-dioxoisoindolin-5-yl)hexahydropyrrolo[3,4-c]pyrrol-2(1H)-yl)ethyl)pyrrolidin-1-yl)benzamide] here?
Answer: < 1 nM

Question: For `Cc1cc(O[C@H]2C(C)(C)[C@H](NC(=O)c3cnc(N4CCC(CN(C(C)C)[C@H]5C[C@H](Oc6ccc7c(c6)C(=O)N(C6CCC(=O)NC6=O)C7=O)C5)CC4)cn3)C2(C)C)cc(C)c1C#N` (stereo partly shown) [compound 112, N-((1r,3r)-3-(4-cyano-3,5-dimethylphenoxy)-2,2,4,4-tetramethylcyclobutyl)-5-(4-((((1r,3r)-3-((2-(2,6-dioxopiperidin-3-yl)-1,3-dioxoisoindolin-5-yl)oxy)cyclobutyl) (isopropyl)amino)methyl)piperidin-1-yl)pyrazine-2-carboxamide], which DC50 is on record?
Answer: < 1 nM

Question: Which DC50 does the source give for `CC(C)N(CC1CCN(c2cnc(C(=O)N[C@H]3C(C)(C)[C@H](Oc4ccc(C#N)c(Cl)c4)C3(C)C)cn2)CC1)[C@H]1C[C@H](Oc2ccc3c(c2)CN(C2CCC(=O)NC2=O)C3=O)C1` (stereo partly shown) [compound 113, N-((1r,3r)-3-(3-chloro-4-cyanophenoxy)-2,2,4,4-tetramethylcyclobutyl)-5-(4-((((1r,3r)-3-((2-(2,6-dioxopiperidin-3-yl)-1-oxoisoindolin-5-yl)oxy)cyclobutyl) (isopropyl)amino)methyl)piperidin-1-yl)pyrazine-2-carboxamide] here?
Answer: < 1 nM

Question: For `CC1(C)[C@H](NC(=O)c2ccc(N3CCC(CN4CC5CN(c6ccc7c(c6)C(=O)N(C6CCC(=O)NC6=O)C7=O)CC5C4)CC3)cc2)C(C)(C)[C@H]1Oc1ccc(C#N)c(Cl)c1` (stereo partly shown) [compound 114, N-((1r,3r)-3-(3-chloro-4-cyanophenoxy)-2,2,4,4-tetramethylcyclobutyl)-4-(4-((5-(2-(2,6-dioxopiperidin-3-yl)-1,3-dioxoisoindolin-5-yl)hexahydropyrrolo[3,4-c]pyrrol-2(1H)-yl)methyl)piperidin-1-yl)benzamide], which DC50 is on record?
Answer: < 1 nM

Question: `Cc1cc(O[C@H]2C(C)(C)[C@H](NC(=O)c3cnc(N4CCC(CCN5CC(Oc6ccc7c(c6)C(=O)N(C6CCC(=O)NC6=O)C7=O)C5)CC4)cn3)C2(C)C)cc(C)c1C#N` (stereo partly shown) [compound 115, N-((1r,3r)-3-(4-cyano-3,5-dimethylphenoxy)-2,2,4,4-tetramethylcyclobutyl)-5-(4-(2-(3-((2-(2,6-dioxopiperidin-3-yl)-1,3-dioxoisoindolin-5-yl)oxy)azetidin-1-yl)ethyl)piperidin-1-yl)pyrazine-2-carboxamide] was tested. Which DC50 did it give?
Answer: < 1 nM

Question: How did the DC50 turn out when `COCCN(CC1CCN(c2cnc(C(=O)N[C@H]3C(C)(C)[C@H](Oc4ccc(C#N)c(OC)c4)C3(C)C)cn2)CC1)[C@H]1C[C@H](Oc2ccc3c(c2)C(=O)N(C2CCC(=O)NC2=O)C3=O)C1` (stereo partly shown) [compound 116, N-((1r,3r)-3-(4-cyano-3-methoxyphenoxy)-2,2,4,4-tetramethylcyclobutyl)-5-(4-((((1r,3r)-3-((2-(2,6-dioxopiperidin-3-yl)-1,3-dioxoisoindolin-5-yl)oxy)cyclobutyl)(2-methoxyethyl)amino)methyl)piperidin-1-yl)pyrazine-2-carboxamide] was run?
Answer: < 1 nM

Question: With `Cc1cc(O[C@H]2C(C)(C)[C@H](NC(=O)c3cnc(N4CC(CN5CCC(Oc6ccc7c(c6)C(=O)N(C6CCC(=O)NC6=O)C7=O)CC5)C4)cn3)C2(C)C)cc(C)c1C#N` (stereo partly shown) [compound 117, N-((1r,3r)-3-(4-cyano-3,5-dimethylphenoxy)-2,2,4,4-tetramethylcyclobutyl)-5-(3-((4-((2-(2,6-dioxopiperidin-3-yl)-1,3-dioxoisoindolin-5-yl)oxy)piperidin-1-yl)methyl)azetidin-1-yl)pyrazine-2-carboxamide] as the compound, how does the DC50 read?
Answer: < 1 nM

Question: With `Cc1cc(O[C@H]2C(C)(C)[C@H](NC(=O)c3cnc(N4CC(CN[C@H]5C[C@H](Oc6ccc7c(c6)C(=O)N(C6CCC(=O)NC6=O)C7=O)C5)C4)cn3)C2(C)C)cc(C)c1C#N` (stereo partly shown) [compound 118, N-((1r,3r)-3-(4-cyano-3,5-dimethylphenoxy)-2,2,4,4-tetramethylcyclobutyl)-5-(3-((((1r,3r)-3-((2-(2,6-dioxopiperidin-3-yl)-1,3-dioxoisoindolin-5-yl)oxy)cyclobutyl)amino)methyl)azetidin-1-yl)pyrazine-2-carboxamide] as the compound, how does the DC50 read?
Answer: < 1 nM
